From US6248575A, “Nucleic acids encoding polypeptides having L-amino acid oxidase activity” (Novozymes Biotech, Inc., priority 1999, dated 2001) come the findings set out here.

The target of data set [1] is T1, Trichoderma harzianum CBS 223.93 L-amino acid oxidase (Trichoderma harzianum, UniProt A0A2T4A4V3).
T1 sequence (A0A2T4A4V3 with tags, fused parts or gaps V19I/P71L/S84P/G163K/E317K/D352E/Y353H/V383A/D435A/DEL437-437/D438T/D462E/L570R/R580K/V618I): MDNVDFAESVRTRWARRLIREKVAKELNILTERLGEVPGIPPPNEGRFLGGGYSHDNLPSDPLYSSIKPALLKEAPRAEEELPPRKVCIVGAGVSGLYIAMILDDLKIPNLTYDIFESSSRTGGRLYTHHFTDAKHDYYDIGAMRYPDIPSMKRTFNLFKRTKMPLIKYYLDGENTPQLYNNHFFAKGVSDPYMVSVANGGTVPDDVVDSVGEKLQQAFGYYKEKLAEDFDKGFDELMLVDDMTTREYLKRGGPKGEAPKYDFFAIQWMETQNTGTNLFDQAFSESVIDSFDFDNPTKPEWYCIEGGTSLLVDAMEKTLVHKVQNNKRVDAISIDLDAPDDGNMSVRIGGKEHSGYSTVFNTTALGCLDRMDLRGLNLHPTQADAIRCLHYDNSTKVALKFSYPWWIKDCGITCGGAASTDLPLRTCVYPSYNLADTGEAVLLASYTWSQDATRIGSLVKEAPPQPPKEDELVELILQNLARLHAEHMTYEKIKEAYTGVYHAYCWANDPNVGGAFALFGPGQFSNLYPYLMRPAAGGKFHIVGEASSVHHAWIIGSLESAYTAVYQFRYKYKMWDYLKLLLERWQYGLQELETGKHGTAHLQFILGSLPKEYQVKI
In words: Substrate specificity: specific activity and Km with various L-amino acids as substrates. It is filed as biochemical. Conditions: for Specific Activity / activity of the L-amino acid oxidase towards the substrate: phosphate buffer pH 8.5, room temperature; for Specific Activity: 20 minutes; for Km: Lineweaver-Burk plots (1/v versus 1/s); for ranking of Km values among substrates: comparison of the substrates of Table 1. The procedure:
(§1) In the following characterization experiments, detection of H2 O2 was carried out using a Coprinus cinereus peroxidase (CiP), obtained according to WO 92/16634, at a level of 4.5 PODU/ml, and 0.4 mM ABTS in phosphate buffer at pH 7.0. The hydrogen peroxide concentrations were determined relative to a freshly prepared hydrogen peroxide standard solution.
For determination of substrate specificity, the activity of the L-amino acid oxidase was determined with various L-amino acids as substrates. The L-amino acid oxidase was incubated with the substrate in phosphate buffer at pH 8.5 and room temperature for 20 minutes. Generated hydrogen peroxide was detected using ABTS and CiP as described above. The specific activity was determined as described in Example 2 above.
Km values for the various substrates were determined by plotting values of 1/v versus 1/s (Lineweaver-Burk plots).

Data set [2] is described as follows: Specific activity of the purified L-amino acid oxidase. The data set is classed as biochemical, Trichoderma harzianum. Conditions: 50 mM phosphate buffer pH 8.5, 20° C., 1 mM L-arginine as substrate. The protocol: For purposes of the present invention, L-amino acid oxidase activity is determined according to the procedure described in WO 94/25574 where the hydrogen peroxide produced during the […] of L-arginine is measured by coupling the reaction to a peroxidase in the presence of 2,2'-azinobis(3-ethylbenzothiazoline-6sulfonate) (ABTS) which produces a greenish-blue color at 418 nm. One unit of L-amino acid oxidase activity is defined as 1.0 μmole of hydrogen peroxide produced per minute at 20° C. in 50 mM phosphate buffer at pH 8.5 with 1 mM L-arginine as substrate.
The specific activity of the purified L-amino acid oxidase was 16 U/mg determined in a 50 mM phosphate buffer at pH 8.5, 20° C. with 1 mM L-arginine as substrate. One unit of enzyme will form 1 μmole of hydrogen peroxide per minute. The amount of protein was quantified assuming that a solution of the L-amino acid oxidase having an optical density of 1 determined at 280 nm contains 1 mg of protein/ml. The L-amino acid oxidase yield was approximately 50 mg of pure protein per liter of culture medium.

Data set [3] can be described thus: pH activity profile / pH optimum of the L-amino acid oxidase. The data set is classed as biochemical, Trichoderma harzianum. Conditions: 20 minutes, 1 mM L-arginine, 100 mM phosphate buffer; FIG. 1. The protocol: as §1
(§2) For determination of the pH optimum, the assay was carried out in two steps. In the first step, the L-amino acid oxidase was incubated for 20 minutes with 1 mM of L-arginine in 100 mM of phosphate buffer at various pH values. In the second step, the generated hydrogen peroxide was detected as described above.

Data set [4] is described as follows: pH stability of the L-amino acid oxidase (residual activity). The data set is classed as physicochemical, Trichoderma harzianum. The note with it: 1 hour at 40° C., 50 mM phosphate buffer, FIG. 2. The procedure: as §1, §2
For determination of pH stability, the L-amino acid oxidase was incubated at various pH values for 1 hour at 40° C. in 50 mM of phosphate buffer. After dilution, residual activity was measured using the two-step procedure described above.

A short description of data set [5]: Temperature stability of the L-amino acid oxidase (residual activity). The data set is classed as physicochemical, Trichoderma harzianum. The note with it: phosphate buffer pH 8.5, 1 hour, FIG. 3. The procedure:
as §1, §2
For determination of temperature stability, the L-amino acid oxidase was incubated in phosphate buffer at pH 8.5 for 1 hour at various temperatures. After dilution, residual activity was measured using the two-step procedure described above.

Take `CC(C)C[C@H](N)C(=O)O` [L-leucine]: in data set [1] (Substrate Conc. 80 mM), the “Specific Activity” value came to 16 U/mg. In addition, the “activity of the L-amino acid oxidase towards the substrate” value in data set [1] is “showed activity”.

As to `CSCC[C@H](N)C(=O)O` [L-methionine], in data set [1], the Km is 15 mM and the “activity of the L-amino acid oxidase towards the substrate” value is “showed activity”. Moreover, in data set [1] (Substrate Conc. 80 mM), the “Specific Activity” value is recorded as 8 U/mg.

Take `N=C(N)NCCC[C@H](N)C(=O)O` [L-arginine]: the “Specific Activity” value in data set [1] (Substrate Conc. 1 mM) is recorded as 16 U/mg. Moreover, in data set [1] (Substrate Conc. 10 mM), the “Specific Activity” value came out at 30 U/mg. Besides, in data set [1], the “ranking of Km values among substrates” value is “lowest Km values” and the “activity of the L-amino acid oxidase towards the substrate” value was “showed activity”. Besides, the preferred substrate entry in data set [1] (from the experiments of Table 1) was “preferred substrate”.

As to `NCCCC[C@H](N)C(=O)O` [L-lysine], in data set [1], the Km worked out at 0.2 mM, the “ranking of Km values among substrates” value was “lowest Km values” and the “activity of the L-amino acid oxidase towards the substrate” value is recorded as “showed activity”. The “Specific Activity” value in data set [1] (Substrate Conc. 1 mM) turned out to be 7 U/mg.

As to `N[C@@H](Cc1ccccc1)C(=O)O` [L-phenylalamine], the “Specific Activity” value in data set [1] (Substrate Conc. 80 mM) is 25 U/mg. Besides, the “activity of the L-amino acid oxidase towards the substrate” value in data set [1] is on record as “showed activity”.

In the case of `NC(=O)C[C@H](N)C(=O)O` [L-asparagine], in data set [1] (Substrate Conc. 80 mM), the “Specific Activity” value is reported as 7 U/mg. In data set [1], the “activity of the L-amino acid oxidase towards the substrate” value is “showed activity”.

B1: L-amino acid oxidase: purified L-amino acid oxidase from Trichoderma harzianum CBS 223.93; deduced protein of 617 amino acids (SEQ ID NO. 2) (protein)
chain: MDNVDFAESVRTRWARRLIREKVAKELNILTERLGEVPGIPPPNEGRFLGGGYSHDNLPSDPLYSSIKPALLKEAPRAEEELPPRKVCIVGAGVSGLYIAMILDDLKIPNLTYDIFESSSRTGGRLYTHHFTDAKHDYYDIGAMRYPDIPSMKRTFNLFKRTKMPLIKYYLDGENTPQLYNNHFFAKGVSDPYMVSVANGGTVPDDVVDSVGEKLQQAFGYYKEKLAEDFDKGFDELMLVDDMTTREYLKRGGPKGEAPKYDFFAIQWMETQNTGTNLFDQAFSESVIDSFDFDNPTKPEWYCIEGGTSLLVDAMEKTLVHKVQNNKRVDAISIDLDAPDDGNMSVRIGGKEHSGYSTVFNTTALGCLDRMDLRGLNLHPTQADAIRCLHYDNSTKVALKFSYPWWIKDCGITCGGAASTDLPLRTCVYPSYNLADTGEAVLLASYTWSQDATRIGSLVKEAPPQPPKEDELVELILQNLARLHAEHMTYEKIKEAYTGVYHAYCWANDPNVGGAFALFGPGQFSNLYPYLMRPAAGGKFHIVGEASSVHHAWIIGSLESAYTAVYQFRYKYKMWDYLKLLLERWQYGLQELETGKHGTAHLQFILGSLPKEYQVKI
As to B1, the “specific activity of the purified L-amino acid oxidase” value in data set [2] was 16 U/mg. In addition, in data set [3], the “pH interval in which activity is shown” value is listed as “from pH below 7 to a pH of approximately 12” and the pH optimum was about 9 pH. In addition, in data set [4] (pH 10), the “pH stability relative to initial activity” value was “more than 70%”. In addition, in data set [4] (range pH 7-9.5), the “pH stability relative to initial activity” value is given as “more than 80%”. Besides, in data set [5], the “temperature range in which the enzyme is stable” value is “from below 22 °C to above 60 °C”. Besides, in data set [5] (range 25° C. to 60° C.), the “temperature stability relative to initial activity” value is on record as “more than 80%”.
